Test system: PHB1
Experiment: PHB1 level regulation in cultured rat hepatocytes (Western blot)
Type: cell-based
Details: for effect on PHB1 levels: 24 h incubation under standard conditions, 100 μM methionine or 4 mM AdoMet in culture media
Procedure: FIG. 5 illustrates PHB1 level regulation by AdoMet in cultured rat hepatocytes. PHB1 levels were measured in rat hepatocytes cultured for 12 or 24 hours in the presence or absence of 100 μM methionine, 4 mM AdoMet or 20 mM cycloleucine. Liver extracts (15 μg/lane) were analyzed by Western blotting using specific antibodies. To ensure equal loading, the membranes were stained with red Ponceau. A representative blot from three independent experiments is shown. Hepatocytes were isolated from male Wistar rats (200-250 g) by perfusion with collagenases, as previously described ([…]., et al., Gastroenterology, 1998, 114:364-371). Once isolated, hepatocytes were cultured according to García-Trevijano et al. […] Cell viability was measured by trypan blue exclusion, and no significant differences were observed between the controls and any of the different treatments performed in this study. Protein extraction and western blotting were performed as previously described ([…]., et al., Oncogene, 1995, 10:963-971; Ruiz, F., et al., Hepatology, 1998, 28:1051-1057). Briefly, equal amounts of protein (15 μg) were resolved in SDS/12.5% polyacrylamide gels. Proteins were electrophoretically transferred to nitrocellulose membranes. Membranes were probed with anti-MAT (Ruiz, F., et al., Hepatology, 1998, 28:1051-1057), anti-PHB1, anti-β ATPase and anti-COX I and II. A secondary antibody conjugated to horseradish peroxidase was used. Blots were developed by chemiluminescence (Dupont).

## C[S+](CC[C@H](N)C(=O)[O-])C[C@H]1O[C@@H](n2cnc3c(N)ncnc32)[C@H](O)[C@@H]1O (stereo partly shown) [AdoMet, S-adenosylmethionine]
  effect on PHB1 levels: no effect
Exogenous addition of 4 mM AdoMet after 12 hours culture in the absence of methionine
  decrease of PHB1 in the absence of methionine: prevented the decrease of PHB1

## NC1(C(=O)O)CCCC1 [CL, cycloleucine]
20 mM CL added to culture medium
  down-regulation of PHB1: 55%

## CSCC[C@H](N)C(=O)O [methionine]
  effect on PHB1 levels: no effect
